One test deals with JAK1 (Homo sapiens (Human), UniProt P23458). As to the kind of experiment: Jak biochemical HTRF assay, JAK1. To be noted: HTRF biochemical assay, recombinant GST-tagged catalytic domain; read-out: JAK1 IC50.
The next test concerns the target JAK2 (Homo sapiens (Human), UniProt O60674). As to the kind of experiment: Jak biochemical HTRF assay, JAK2. To be noted: HTRF biochemical assay, recombinant GST-tagged catalytic domain; read-out: JAK2 IC50.

Each structure is given as a SMILES string.

Chain of JAK2 (O60674 849-1124): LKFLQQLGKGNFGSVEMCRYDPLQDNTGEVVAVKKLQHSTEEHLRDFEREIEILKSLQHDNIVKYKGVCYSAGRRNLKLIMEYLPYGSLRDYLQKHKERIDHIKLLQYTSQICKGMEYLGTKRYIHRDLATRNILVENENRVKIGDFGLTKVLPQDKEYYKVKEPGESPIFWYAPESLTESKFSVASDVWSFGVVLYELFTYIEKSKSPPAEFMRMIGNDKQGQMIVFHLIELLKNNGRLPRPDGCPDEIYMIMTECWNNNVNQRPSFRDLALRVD
Chain of JAK1 (P23458 875-1153): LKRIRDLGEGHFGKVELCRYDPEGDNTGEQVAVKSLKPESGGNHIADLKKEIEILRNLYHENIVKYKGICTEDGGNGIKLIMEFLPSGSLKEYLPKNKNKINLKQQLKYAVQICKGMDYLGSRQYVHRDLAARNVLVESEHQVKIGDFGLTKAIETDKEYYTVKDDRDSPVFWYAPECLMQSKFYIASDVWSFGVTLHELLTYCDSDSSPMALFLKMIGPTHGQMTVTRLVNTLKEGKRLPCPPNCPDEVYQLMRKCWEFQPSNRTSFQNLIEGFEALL

As for `CC(C)(C)OC(=O)[C@H]1CC[C@@H](N2Cc3cc(Nc4nn([C@H]5CCCC[C@@H]5C#N)c5cc[nH]c(=O)c45)ccc3S2(=O)=O)CC1` [Example 15-43, (1S,4S)-tert-butyl 4-(5-((1-((1S,2S)-2-cyanocyclohexyl)-4-oxo-4,5-dihydro-1H-pyrazolo[4,3-c]pyridin-3-yl)amino)-1,1-dioxidobenzo[d]isothiazol-2(3H)-yl)cyclohexanecarboxylate], the IC50 was found to be 0.22 nM on JAK1 and 1.2 nM at JAK2.
For `CC(C)(O)c1cn(Cc2ccc(Nc3nn([C@H]4CCCC[C@@H]4C#N)c4cc[nH]c(=O)c34)cc2)nn1` [Example 3-52, (1S,2S)-2-{3-[(4-{[4-(1-hydroxy-1-methylethyl)-1H-1,2,3-triazol-1-yl]methyl}phenyl)amino]-4-oxo-4,5-dihydro-1H-pyrazolo[4,3-c]pyridin-1-yl}cyclohexanecarbonitrile], the IC50 on JAK1 worked out at 0.16 nM; on JAK2, 0.41 nM.
Taken in the same sequence, the figures for `N#C[C@H]1CCCC[C@@H]1n1nc(Nc2cccc(Cn3cnnc3)c2)c2c(=O)[nH]ccc21` [Example 3-51, (1S,2S)-2-(4-oxo-3-{[3-(4H-1,2,4-triazol-4-ylmethyl)phenyl]amino}-4,5-dihydro-1H-pyrazolo[4,3-c]pyridin-1-yl)cyclohexanecarbonitrile] were 0.25 nM and 1.2 nM.
In the case of `N#C[C@H]1CCCC[C@@H]1n1nc(Nc2ccc3c(c2)CC2(CCCCC2)S3(=O)=O)c2c(=O)[nH]ccc21` [Example 21-2, (1S,2S)-2-(3-((1,1-Dioxido-3H-spiro[benzo[b]thiophene-2,1′-cyclohexan]-5-yl)amino)-4-oxo-4,5-dihydro-1H-pyrazolo[4,3-c]pyridin-1-yl)cyclohexanecarbonitrile], the IC50 on JAK1 is 0.12 nM; at JAK2, 0.38 nM.
Taken in the same sequence, the figures for `CC1(O)CN([C@H]2CC[C@H](n3nc(Nc4ccc(Cl)cc4)c4c(=O)[nH]ccc43)[C@@H](C#N)C2)C1` [Example 5-22, (1S,2S,5S)-2-(3-((4-chlorophenyl)amino)-4-oxo-4,5-dihydro-1H-pyrazolo[4,3-c]pyridin-1-yl)-5-(3-hydroxy-3-methylazetidin-1-yl)cyclohexanecarbonitrile] were 0.24 nM and 4 nM.
As to `N#C[C@H]1CCCC[C@@H]1n1nc(Nc2ccc(S(=O)(=O)N3CCOCC3)cc2)c2c(=O)[nH]ccc21` [Example 3-24, (1S,2S)-2-(3-{[4-(morpholin-4-ylsulfonyl)phenyl]amino}-4-oxo-4,5-dihydro-1H-pyrazolo[4,3-c]pyridin-1-yl)cyclohexanecarbonitrile], the values for the IC50 on JAK1 and at JAK2 were 0.15 nM and 0.47 nM, respectively.
For `CC(C)S(=O)(=O)c1ccc(Nc2nn([C@H]3CCC[C@@H]3C#N)c3cc[nH]c(=O)c23)cc1` [Example 3-105, (1S,2S)-2-[3-({4-[(1-methylethyl)sulfonyl]phenyl}amino)-4-oxo-4,5-dihydro-1H-pyrazolo[4,3-c]pyridin-1-yl]cyclopentanecarbonitrile], in that order: 0.11 nM and 0.4 nM.
For `N#C[C@H]1CCCC[C@@H]1n1nc(Nc2ccc([C@H]3C[C@H]4CC[C@@H](C3)N4)cc2)c2c(=O)[nH]ccc21` [Example 20-2], in that order: 0.39 nM and 0.39 nM.
For `CN1Cc2cc(Nc3nn([C@H]4CCC[C@@H]4C#N)c4cc[nH]c(=O)c34)ccc2S1(=O)=O` [Example 3-102, (1S,2S)-2-{3-[(2-methyl-1,1-dioxido-2,3-dihydro-1,2-benzisothiazol-5-yl)amino]-4-oxo-4,5-dihydro-1H-pyrazolo[4,3-c]pyridin-1-yl}cyclopentanecarbonitrile], the IC50 worked out at 0.051 nM on JAK1 and 0.66 nM at JAK2.

The record behind these values is patent publication US9725445B2, “Cycloalkyl nitrile pyrazolo pyridones as Janus kinase inhibitors” (Merck Sharp & Dohme Corp., priority 2013, dated 2017).
